This data set in a line: in vitro. The conditions noted are these: rat, gh3-tre-luc cells.

Counter-ions that a name gives are not always drawn. Some results are limits rather than exact numbers.

As to `C(=C/c1ccccc1)/c1ccccc1` [cis-Stilbene], the cytotoxic concentration (CC50) at 24 h (AC50 (uM) modified / 1000) is greater than 90 µM.

On to `O=C1c2ccccc2CCc2ccccc21` [Dibenzosuberone], for which the CC50 at 24 h (AC50 (uM) modified / 1000) is greater than 90 µM.

In turn, `NCCNCCNCCN` [Triethylenetetramine] displayed a CC50 at 24 h (AC50 (uM) modified / 1000) greater than 90 µM.

Regarding `CC(=O)c1ccc(OCC(=O)N2CCCCC2)cc1` [4'-Piperidinylcarbonylmethoxyacetophenone], the CC50 at 24 h (AC50 (uM) modified / 1000) is greater than 50 µM.

`CC(C)(C)C(=O)CCc1ccc(Cl)cc1` [1-(4-Chlorophenyl)-4,4-dimethyl-pentan-3-one]: under “AC50 (uM) modified / 1000”, the cytotoxic concentration (CC50) at 24 h was greater than 90 µM.

`CCCCC/C=C\CCC=O` [(4Z)-4-Decenal]: the CC50 at 24 h (AC50 (uM) modified / 1000) was greater than 90 µM.

On to `c1cnc2cc3c(cc2n1)[C@@H]1CNC[C@H]3C1` [Varenicline tartrate], for which the CC50 at 24 h (AC50 (uM) modified / 1000) is greater than 50 µM.

With `Nc1ccc(S(=O)(=O)Nc2ncccn2)cc1` [Sulfadiazine], the CC50 at 24 h (AC50 (uM) modified / 1000) was greater than 20 µM.

Regarding `CC(=O)CC(c1ccccc1)c1c(O)c2ccccc2oc1=O` (stereo not shown) [Warfarin], the CC50 at 24 h (AC50 (uM) modified / 1000) is greater than 90 µM.

As for `C1=CCC(c2ccccc2)CC1` (stereo not shown) [4-Phenyl-1-cyclohexene], the CC50 at 24 h (AC50 (uM) modified / 1000) was greater than 90 µM.

Take `Cc1ccc2c(c1)[C@]13CCCC[C@@H]1[C@H](C2)N(C)CC3` [Dimemorfan phosphate]: the CC50 at 24 h (AC50 (uM) modified / 1000, Tox21_110001=Tox21_113138, viability, 1 nM T3 present, 24 h) was greater than 50 µM.

`CC(C)CNCC(C)C` [Diisobutylamine] came in with a CC50 at 24 h (AC50 (uM) modified / 1000) greater than 90 µM.

Molecule `N#Cc1ccncc1` [4-Pyridinecarbonitrile] yielded a cytotoxic concentration (CC50) at 24 h (AC50 (uM) modified / 1000, Tox21_110001=Tox21_300741, viability, 1 nM T3 present, 24 h) greater than 100 µM.

For the molecule `N=C(N)S(=O)O` [Amino(imino)methanesulfinic acid], the CC50 at 24 h (AC50 (uM) modified / 1000) was greater than 90 µM.

`CN1CC(O)C2=C/C(=N/NC(N)=O)C(=O)C=C21` (stereo not shown) [Carbazochrome] displayed a CC50 at 24 h (AC50 (uM) modified / 1000) greater than 50 µM.

As for `COc1cc(C(=O)NC2CCN(C)CC2)ccc1Nc1ncc2c(n1)N(C1CCCC1)CC(F)(F)C(=O)N2C` [PharmaGSID_48511], for the setting “AC50 (uM) modified / 1000”, the midpoint of cytotoxicity, the CC50 at 24 h, lay at 1.83 µM.

Turning to `Cc1cccc(C)c1NC(=O)/N=C1\CCCN1C` [Xilobam], the 50% cytotoxic concentration (CC50) at 24 h (AC50 (uM) modified / 1000) is greater than 50 µM.

`CCCCOc1cc(C(=O)NCCN(CC)CC)c2ccccc2n1` [Dibucaine] yielded a 50% cytotoxic concentration (CC50) at 24 h (AC50 (uM) modified / 1000) of 9.45 µM.

With `N#CCBr` [Bromoacetonitrile], the cytotoxic concentration (CC50) at 24 h (AC50 (uM) modified / 1000) is greater than 100 µM.

Where the note is “AC50 (uM) modified / 1000”, `CC(c1ccc(O)cc1)c1ccc(O)cc1` [Bisphenol E] yielded a CC50 at 24 h greater than 90 µM.

Where the note is “AC50 (uM) modified / 1000”, `CNCc1cc(F)ccc1Oc1ccc(Cl)c(Cl)c1` [CP-607366] showed a 50% cytotoxic concentration (CC50) at 24 h of 77.7 µM.

Regarding `CC(C)NNC(=O)c1ccncc1` [Iproniazid sulfate], the 50% cytotoxic concentration (CC50) at 24 h (AC50 (uM) modified / 1000) is greater than 50 µM.

As to `O=S(=O)(O)c1ccc2[nH]c(-c3ccccc3)nc2c1` [Ensulizole], the CC50 at 24 h (AC50 (uM) modified / 1000) was greater than 90 µM.

In turn, `CN1CCC[C@H]1c1cccnc1` [Nicotine] yielded a CC50 at 24 h (AC50 (uM) modified / 1000) greater than 90 µM.

For the molecule `CC(=O)S[C@H](C(=O)N[C@H]1Cc2ccccc2[C@H]2CCC[C@@H](C(=O)O)N2C1=O)C(C)C` [Ilepatril], the CC50 at 24 h (AC50 (uM) modified / 1000) is greater than 90 µM.

For `CC[C@]1(O)CC[C@H]2[C@@H]3CCC4=CCCC[C@@H]4[C@H]3CC[C@@]21C` [Ethylestrenol], the cytotoxic concentration (CC50) at 24 h (AC50 (uM) modified / 1000) was greater than 50 µM.

For the molecule `CNC(=O)ON=CC(C)(C)S(C)(=O)=O` [Aldoxycarb], the CC50 at 24 h (AC50 (uM) modified / 1000, Tox21_110001=Tox21_201338, viability, 1 nM T3 present, 24 h) is greater than 90 µM.

On to `O=NN(O)c1ccccc1` [Cupferron], for which the cytotoxic concentration (CC50) at 24 h (AC50 (uM) modified / 1000, Tox21_110001=Tox21_201493, viability, 1 nM T3 present, 24 h) was greater than 90 µM.

As for `CNC(=O)Oc1cc(C)c(N(C)C)c(C)c1` [Mexacarbate], the CC50 at 24 h (AC50 (uM) modified / 1000, Tox21_110001=Tox21_200649, viability, 1 nM T3 present, 24 h) was greater than 90 µM.

With `CCN(CC)C(=O)N[C@H]1C[C@@H]2c3cccc4[nH]cc(c34)C[C@H]2N(C)C1` [Terguride], the 50% cytotoxic concentration (CC50) at 24 h (AC50 (uM) modified / 1000) was greater than 50 µM.

As to `Cc1ccc(S(=O)(=O)NC(=O)NC2CCCCCCC2)cc1` [Glyoctamide], the 50% cytotoxic concentration (CC50) at 24 h (AC50 (uM) modified / 1000) was greater than 50 µM.

In turn, `CC[C@H](C)C(=O)O[C@H]1C[C@H](O)C=C2C=C[C@H](C)[C@H](CC[C@@H](O)C[C@@H](O)CC(=O)O)[C@H]21` [Pravastatin sodium] returned a CC50 at 24 h (AC50 (uM) modified / 1000) greater than 90 µM.

Under “AC50 (uM) modified / 1000”, `O=C(O)CCSCCC(=O)O` [3,3'-Thiodipropionic acid] gave a cytotoxic concentration (CC50) at 24 h greater than 90 µM.

For `CCCCCC(=O)O` [Hexanoic acid], the 50% cytotoxic concentration (CC50) at 24 h (AC50 (uM) modified / 1000) was greater than 90 µM.

For the origin of these results see publication PMC6792352, “Limited Chemical Structural Diversity Found to Modulate Thyroid Hormone Receptor in the Tox21 Chemical Library” (Environmental Health Perspectives, 2019).
